From PMC12612990, “PNA5, a glycosylated angiotensin-(1−7) mas receptor agonist for vascular dementia: A two species toxicology and toxicokinetic study” (Toxicology Reports, 2025)
Peptide text beside a SMILES is read from it. * marks the point of attachment. βGlc = OC[C@H]1O[C@@H](*)[C@H](O)[C@@H](O)[C@@H]1O

What was measured:
[1] = Stability of dosing formulations; type: physicochemical; details: solutions in 0.9 % sodium chloride, 0.1 mg/mL and 10 mg/mL
Method: The analyzed dosing formulations were within the protocol-specified range of target concentrations for solutions and were stable at 0.1 mg/mL and 10 mg/mL following 24 h of room temperature storage and following 9 days of refrigerated storage.
The analyzed dosing formulations contained 95.5–108.7 % of the test article, which was within the protocol-specified range of target concentrations for solutions (90–110 %), and were stable at 0.1 mg/mL and 10 mg/mL following 24 h of room temperature storage and following 9 days of refrigerated storage. The test article was not detected in the analyzed vehicle formulation that was administered to the control groups.

[2] = Toxicokinetics of PNA5 in Beagle dog plasma; details: for AUC(0-t): AUC0–2, dogs; for Cmax: Beagle dogs, noncompartmental; for Tmax: table: average (range), text b115: median; for AUC0–2hr accumulation ratio: day 28 vs day 1, sexes combined; for fold increase in AUC0–2hr for a 20-fold increase in dose / fold increase in Cmax for a 20-fold increase in dose: 1 to 20 mg/kg/day; for time post-dose up to which PNA5 was quantifiable: days 1 and 28, limit of quantitation 5 ng/mL
Method: Toxicokinetic (TK) of PNA5 was obtained from plasma following a single and repeated subcutaneous injection administration of PNA5 once daily for 28 days. Blood samples were collected on days 1 and 28 at the following time points: pre-dose and at approximately 5, 15, 30, 60, and 120 min post-dose (equivalent to 0.083, 0.25, 0.5, 1, and 2 h).
For the rat study, a total of 6 rats for each sex were assigned randomly to treatment groups 2–4 (those treated with PNA5). Three rats per sex were assigned to group 1 (vehicle control). Rats were sampled in satellite groups; rats' blood was taken at alternating time points, resulting in a total n = 3 per time point for six animals. For the dog study, three animals per sex were assigned to group 2 and group 3, and five animals per sex were assigned to group 1 and group 4. Blood was collected from canines via venipuncture.
Blood was collected in heparinized tubes containing a protease inhibitor cocktail consisting of 4 mM 0-phenanthroline, 1.2 mM pepstatin A, and 0.5 M EDTA. Blood samples were centrifuged for 15 min at 2500 x g at room temperature. Plasma was transferred into pre-cooled, pre-labeled collection tubes, frozen immediately in liquid nitrogen/dry ice, and stored at −80 °C until analysis.
PNA5 levels were analyzed using ultra-high performance liquid chromatography (UHPLC) with tandem mass spectrometric (MS/MS) detection. Precision and accuracy, reproducibility, selectivity, carryover, recovery, matrix effects, dilution integrity, hemolysis, stock stability, and matrix stability were assessed prior to initiation of the validation. Samples (5 µL) were injected onto the column and separated using gradient elution. Target compounds were quantified by summing the height of previously identified fragment peaks in the LC-MS [3] spectra. The serum concentrations were estimated using a calibration curve, accounting for the dilution factors and the probe recoveries for each experiment. Standards were matrix-matched to samples and underwent the same sample preparation steps.
A noncompartmental analysis was used for parameter estimation. For PNA5 in plasma, the extravascular model was used for parameter estimation. For the rat study, all parameters were generated from PNA5 individual concentrations in plasma from days 1 and 28. Parameters were estimated using nominal dose levels and nominal sampling times relative to the dose administration. Plasma concentration values obtained at the pre-dose time point were used as the concentration at time 0 on days 1 and 28. For the dog study, all parameters were generated from PNA5 individual concentrations in plasma from days 1 and 28. Parameters were estimated using nominal dose levels and nominal sampling times relative to dose administration. Plasma concentration values obtained at the pre-dose time point were used as the concentration at time 0 on days 1 and 28. For Beagle dogs, concentration values reported as below the limit of quantitation (< 5 ng/mL) were assigned a value of 0.
The toxicokinetic parameters evaluated included the area under the curve of the plasma PNA5 concentration against time from time 0 (pre-dose) to 2 h (post-dose) (AUC0–2hr), the maximum plasma concentration (Cmax), time to maximum plasma concentration (Tmax), elimination rate (Kel), and the half-life. The area under the concentration vs. time curve was calculated using the linear trapezoidal method with linear interpolation for all profiles with at least three consecutive quantifiable concentrations. Kel was calculated from the slope using exponential regression of concentration versus time (Excel); exponential interpolations for all profiles include at least three concentrations plotted against time. Time 0 values and all concentrations listed as zero were excluded from Kel calculations. The half-life was calculated from Kel via the following equation: half-life Ln(2)/Kel.

## CC[C@H](C)[C@H](NC(=O)[C@H](Cc1ccc(O)cc1)NC(=O)[C@@H](NC(=O)[C@H](CCCNC(=N)N)NC(=O)[C@@H](N)CC(=O)O)C(C)C)C(=O)N[C@@H](Cc1c[nH]cn1)C(=O)N[C@@H](CO[C@@H]1O[C@H](CO)[C@@H](O)[C@H](O)[C@H]1O)C(N)=O [PNA5, Ang-1–6-Ser-O-Glu-NH2] (H-DRVYIHS(βGlc)-NH2)
[1]; 24 h of room temperature storage
  stability of dosing formulations: stable
[1]; 9 days of refrigerated storage
  stability of dosing formulations: stable
[2]; both, Beagle, dog, plasma, sc, 1 mg/kg/day, plasma, s.c. 1 mg/kg/day, day 1, sexes combined, mean ± SD, n = 6, linear trapezoidal
  AUC(0-t): 63.5 ± 14.8 ng·h/mL
[2]; both, Beagle, dog, plasma, sc, 1 mg/kg/day, plasma, s.c. once daily 1 mg/kg/day, day 1, sexes combined, mean ± SD, n = 6, UHPLC-MS/MS
  Cmax: 110 ± 37.3 ng/mL
[2]; both, Beagle, dog, plasma, sc, 1 mg/kg/day, plasma, s.c. once daily 1 mg/kg/day, day 28, sexes combined, mean ± SD, n = 6, UHPLC-MS/MS
  Cmax: 146 ± 59.6 ng/mL
[2]; both, Beagle, dog, plasma, sc, 1 mg/kg/day, dogs, plasma, s.c. 1 mg/kg/day, day 1, sexes combined, mean ± SD, n = 6, Ln(2)/Kel
  half-life: 17.4 ± 6 min
[2]; both, Beagle, dog, plasma, sc, 1 mg/kg/day, dogs, plasma, s.c. 1 mg/kg/day, day 28, sexes combined, mean ± SD, n = 6, Ln(2)/Kel
  half-life: 15.6 ± 4.8 min
[2]; both, Beagle, dog, plasma, sc, 1 mg/kg/day, Tmax, dogs, plasma, s.c. 1 mg/kg/day, day 1, sexes combined
  Tmax: 10 min
[2]; both, Beagle, dog, plasma, sc, 5 mg/kg/day, plasma, s.c. 5 mg/kg/day, day 1, sexes combined, mean ± SD, n = 6, linear trapezoidal
  AUC(0-t): 358 ± 95.1 ng·h/mL
[2]; both, Beagle, dog, plasma, sc, 5 mg/kg/day, plasma, s.c. 5 mg/kg/day, day 28, sexes combined, mean ± SD, n = 6, linear trapezoidal
  AUC(0-t): 365 ± 42.6 ng·h/mL
[2]; both, Beagle, dog, plasma, sc, 5 mg/kg/day, plasma, s.c. once daily 5 mg/kg/day, day 1, sexes combined, mean ± SD, n = 6, UHPLC-MS/MS
  Cmax: 496 ± 115 ng/mL
[2]; both, Beagle, dog, plasma, sc, 5 mg/kg/day, plasma, s.c. once daily 5 mg/kg/day, day 28, sexes combined, mean ± SD, n = 6, UHPLC-MS/MS
  Cmax: 444 ± 101 ng/mL
[2]; both, Beagle, dog, plasma, sc, 5 mg/kg/day, dogs, plasma, s.c. 5 mg/kg/day, day 1, sexes combined, mean ± SD, n = 6, Ln(2)/Kel
  half-life: 30 ± 7.8 min
[2]; both, Beagle, dog, plasma, sc, 5 mg/kg/day, dogs, plasma, s.c. 5 mg/kg/day, day 28, sexes combined, mean ± SD, n = 6, Ln(2)/Kel
  half-life: 34.8 ± 12.6 min
[2]; both, Beagle, dog, plasma, sc, 5 mg/kg/day, Tmax, dogs, plasma, s.c. 5 mg/kg/day, day 1, sexes combined
  Tmax: 15 min
[2]; both, Beagle, dog, plasma, sc, 5 mg/kg/day, Tmax, dogs, plasma, s.c. 5 mg/kg/day, day 28, sexes combined
  Tmax: 10 min
[2]; both, Beagle, dog, plasma, sc, 20 mg/kg/day, plasma, s.c. 20 mg/kg/day, day 1, sexes combined, mean ± SD, n = 10, linear trapezoidal
  AUC(0-t): 1270 ± 270 ng·h/mL
[2]; both, Beagle, dog, plasma, sc, 20 mg/kg/day, plasma, s.c. 20 mg/kg/day, day 28, sexes combined, mean ± SD, n = 10, linear trapezoidal
  AUC(0-t): 1080 ± 309 ng·h/mL
[2]; both, Beagle, dog, plasma, sc, 20 mg/kg/day, plasma, s.c. once daily 20 mg/kg/day, day 1, sexes combined, mean ± SD, n = 10, UHPLC-MS/MS
  Cmax: 1440 ± 453 ng/mL
[2]; both, Beagle, dog, plasma, sc, 20 mg/kg/day, plasma, s.c. once daily 20 mg/kg/day, day 28, sexes combined, mean ± SD, n = 10, UHPLC-MS/MS
  Cmax: 1120 ± 530 ng/mL
[2]; both, Beagle, dog, plasma, sc, 20 mg/kg/day, dogs, plasma, s.c. 20 mg/kg/day, day 1, sexes combined, mean ± SD, n = 10, Ln(2)/Kel
  half-life: 41.4 ± 6 min
[2]; both, Beagle, dog, plasma, sc, 20 mg/kg/day, dogs, plasma, s.c. 20 mg/kg/day, day 28, sexes combined, mean ± SD, n = 9, Ln(2)/Kel
  half-life: 48.6 ± 12.6 min
[2]; both, Beagle, dog, plasma, sc, 20 mg/kg/day, Tmax, dogs, plasma, s.c. 20 mg/kg/day, day 1, sexes combined
  Tmax: 15 min
[2]; both, Beagle, dog, plasma, sc, 20 mg/kg/day, Tmax, dogs, plasma, s.c. 20 mg/kg/day, day 28, sexes combined
  Tmax: 22.5 min
[2]; dogs, 1 mg/kg/day
  AUC0–2hr accumulation ratio: 0.99
[2]; dogs, 5 mg/kg/day
  AUC0–2hr accumulation ratio: 1.02
[2]; dogs, 20 mg/kg/day
  AUC0–2hr accumulation ratio: 0.85
[2]; dogs, day 1, sexes combined
  fold increase in AUC0–2hr for a 20-fold increase in dose: ~20.06 fold
  fold increase in Cmax for a 20-fold increase in dose: ~13.06 fold
[2]; dogs, day 28, sexes combined
  fold increase in AUC0–2hr for a 20-fold increase in dose: ~17.19 fold
  fold increase in Cmax for a 20-fold increase in dose: ~7.70 fold
[2]; dogs, plasma, 1 mg/kg/day
  time post-dose up to which PNA5 was quantifiable: up to 1 h
[2]; dogs, plasma, 5 and 20 mg/kg/day, last sampling time 2 h
  time post-dose up to which PNA5 was quantifiable: up to 2 h
[2]; dogs, plasma, s.c. 1 mg/kg/day, day 1, sexes combined, mean ± SD, n = 6, exponential regression
  Kel: 2.63 ± 0.97, 6 hr^–1
[2]; dogs, plasma, s.c. 1 mg/kg/day, day 28, sexes combined, mean ± SD, n = 6, exponential regression
  Kel: 2.87 ± 0.86, 6 hr^–1
[2]; dogs, plasma, s.c. 1 mg/kg/day, day 28, sexes combined, mean ± SD, n = 6, linear trapezoidal
  AUC0–2: 62.61 ± 19.05, 6 hr*ng/mL
[2]; dogs, plasma, s.c. 1 mg/kg/day, day 28, sexes combined
  Tmax: 0.167(0.083–0.25) hr
[2]; dogs, plasma, s.c. 5 mg/kg/day, day 1, sexes combined, mean ± SD, n = 6, exponential regression
  Kel: 1.44 ± 0.33, 6 hr^–1
[2]; dogs, plasma, s.c. 5 mg/kg/day, day 1, sexes combined
  Tmax: 15 min
[2]; dogs, plasma, s.c. 5 mg/kg/day, day 28, sexes combined, mean ± SD, n = 6, exponential regression
  Kel: 1.32 ± 0.43, 6 hr^–1
[2]; dogs, plasma, s.c. 5 mg/kg/day, day 28, sexes combined
  Tmax: 10 min
[2]; dogs, plasma, s.c. 20 mg/kg/day, day 1, sexes combined, mean ± SD, n = 10, exponential regression
  Kel: 1.02 ± 0.17, 10 hr^–1
[2]; dogs, plasma, s.c. 20 mg/kg/day, day 1, sexes combined
  Tmax: 15 min
[2]; dogs, plasma, s.c. 20 mg/kg/day, day 28, sexes combined, mean ± SD, n = 10, exponential regression
  Kel: 0.86 ± 0.35, 10 hr^–1
